These results are taken from patent publication US8048918B2, “Treatment of hyperproliferative diseases” (Vampex Limited, priority 2000, dated 2011).

As a reminder, the IC50 is the concentration needed to halve the response being measured.

Where no end group is shown, it is not given here.

For one assay, the target named is retinol dehydrogenase. Conditions: Boerman and Napoli, Biochemistry 34:7027-37, 1995; cited from earlier work.
The target of the next assay is T1, RalDHI (Rattus norvegicus, UniProt P51647).
T1 sequence (P51647 1-501): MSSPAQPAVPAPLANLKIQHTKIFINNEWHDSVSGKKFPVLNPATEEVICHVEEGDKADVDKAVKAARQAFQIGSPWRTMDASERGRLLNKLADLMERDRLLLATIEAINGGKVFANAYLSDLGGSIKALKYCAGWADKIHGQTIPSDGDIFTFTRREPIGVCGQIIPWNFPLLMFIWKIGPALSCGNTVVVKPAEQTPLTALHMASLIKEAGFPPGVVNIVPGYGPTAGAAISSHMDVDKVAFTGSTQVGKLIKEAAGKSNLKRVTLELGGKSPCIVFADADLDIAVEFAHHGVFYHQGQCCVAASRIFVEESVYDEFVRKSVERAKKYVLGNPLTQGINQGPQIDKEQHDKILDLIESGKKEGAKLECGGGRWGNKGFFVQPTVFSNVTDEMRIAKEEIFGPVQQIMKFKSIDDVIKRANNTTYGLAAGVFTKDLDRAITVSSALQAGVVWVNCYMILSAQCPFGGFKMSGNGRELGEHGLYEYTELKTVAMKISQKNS
Conditions: Penzes et al. 1997; Chen and Juchau 1997; cited from earlier work.

Another assay concerns the target T2, RalDHII (Rattus norvegicus, UniProt Q63639).
T2 sequence (Q63639 1-518): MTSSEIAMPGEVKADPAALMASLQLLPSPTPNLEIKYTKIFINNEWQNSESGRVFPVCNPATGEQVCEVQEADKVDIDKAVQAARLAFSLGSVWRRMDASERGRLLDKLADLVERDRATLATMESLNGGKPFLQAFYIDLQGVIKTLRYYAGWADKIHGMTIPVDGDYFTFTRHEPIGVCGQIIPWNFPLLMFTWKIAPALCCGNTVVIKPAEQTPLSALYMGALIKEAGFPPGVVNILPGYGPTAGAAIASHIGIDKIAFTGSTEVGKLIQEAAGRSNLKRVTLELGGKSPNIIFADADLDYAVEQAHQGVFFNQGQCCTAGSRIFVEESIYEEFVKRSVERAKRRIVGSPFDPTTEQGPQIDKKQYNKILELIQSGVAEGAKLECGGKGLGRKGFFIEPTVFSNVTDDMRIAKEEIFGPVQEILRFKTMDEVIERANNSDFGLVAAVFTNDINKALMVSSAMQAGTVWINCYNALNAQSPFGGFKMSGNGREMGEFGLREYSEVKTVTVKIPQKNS
The note with it: Penzes et al. 1997; Chen and Juchau 1997; cited from earlier work.

In assay [1] the test system is hyperproliferative psoriatic keratinocytes. Description: differentiation assay (K1/K10 mRNA, Northern blot / RT-PCR) on hyperproliferative psoriatic keratinocytes. The class given is cell-based, human. The note with it: peptides 6 μM, Ca2+ 1.2 mM, RBP 0.6 μM. How it is done:
RNA extraction is carried out according to the manufacturers instructions using the RNeasy kit (QIAGEN). 20 μg of RNA for each treatment was separated on a 1.2% agarose (1.8% formaldehyde) gel and transferred onto a nylon membrane (Zeta probe GT membranes, BioRad) by capillary transfer. The RNA is fixed to the membrane by UV crosslinking. DNA probes for the differentiation markers K1 and K10(50 ng) are labelled with [α-^32P] dCTP using the Prime-It RmT Primer labeling kit (Stratagene) following the manufacturer's instructions. Unincorporated nucleotides are removed by elution through a Microspin G25 column (Pharmacia Biotech). The blots are wetted in 0.25M sodium phosphate (pH 7.2)/7% SDS for 30 minutes at 65° C. Fresh hybridisation solution is added along with the radiolabelled probe and the blot is hybridised overnight at 65° C.
The blot is washed for 2×5 minutes in 0.25M sodium phosphate (pH 7.2), 7% SDS and then for 2×5 minutes in 20 mM sodium phosphate (pH 7.2), 5% SDS at 65° C. The wash steps are repeated until a clear distinction can be made between the signal and non-specific background. The blot is exposed to x-ray film for 24 hours before developing.
Synthesis of mRNA for the K1 and K10 keratin (markers for commitment to terminal differentiation) is examined by quantitative reverse transcription PCR (RT-PCR). Synthesis of mRNA for Cyclin D (a marker for cell proliferation) is also assayed by RT-PCR. Standard protocol for RT-PCR is followed as recommended by the manufacturer of the PCR machine (PE 2400) using 1 μg RNA from each keratinocyte culture. Suitable primers for RT-PCR are designed based on the human sequences of K1 and K10 deposited in GenBank. Northern blots are also performed: cells are harvested, RNA extracted and 20 μg RNA loaded into each well of a formaldehyde/agarose gel. The RNA is blotted onto a nylon membrane by capillary transfer and expression of K1 mRNA is determined by Northern hybridisation with a radiolabelled DNA probe.
Next, hyperproliferative epidermal keratinocytes are obtained, isolated and cultured as described above in Example 3. Hyperproliferative psoriatic keratinocytes are cultured as described above in serum-free medium with or without the addition of […] human retinol binding protein. At confluence the cells are treated (see Table 3 below) for 96 hours with peptides to 6 μM (medium replaced after 48 hours). Treatments shown in the Table 3 are for duplicate T-25 flasks (2×7 ml for each treatment).
The final concentrations are: Ca^2+ 1.2 mM, RBP 0.6 μM, peptides 6 μM.
Expression of K1 and K10 markers is determined as described above in Example 4. […]
Synthesis of mRNA for markers of proliferation and differentiation is also examined by semi-quantitative reverse transcription PCR (RT-PCR). […]

In another assay the test system is COS-7 cells. Description: proliferation assay of COS-7 cells (Coulter counter). The note with it: P142 1 mg/ml, peptides 6 μM; 24 and 48 hours after treatment; FIG. 8. The class given is cell-based. The protocol:
[…] (COS1 and COS7) are purchased from the European Cell Culture Collection, thawed and propagated according to the instructions from the supplier; cells are cultured essentially in the same manner as for normal human keratinocytes (Example 3 above), except that cells are seeded at 20 000 cells/cm^2, with only one treatment with antibody P142, control immunoglobulin, peptide 589, peptide 592 or control peptide 24 hrs after seeding.
Proliferation is assayed by counting cells in a Coulter counter, as described above.

For `CC1(C)[C@@H](OC(=O)CCC(=O)O)CC[C@]2(C)[C@H]3C(=O)C=C4[C@@H]5C[C@@](C)(C(=O)O)CC[C@]5(C)CC[C@@]4(C)[C@]3(C)CC[C@@H]12` [Carbenoxolone], at retinol dehydrogenase, the IC50 was 55 µM.
For the molecule `CC(C)=CCCC(C)=CC=O` [Citral, 3,7-dimethyl-2,6-octadienal], the IC50 was 1 µM at RalDHI and 12 µM at RalDHII.
Regarding GRVRLLNNWDVCA, the “differentiation (expression of K1 and K10 markers)” value in assay [1] was “enhances the expression of K1 and K10 markers”; in assay [1] (listed as peptide 389), “reversed”. Moreover, the “proliferation of Cos-7 cells (cell numbers)” value with COS-7 cells was “marked reduction in proliferation”.
